The record followed here is patent US12398154B2, “Azaquinazoline pan-KRas inhibitors” (Mirati Therapeutics, Inc., priority 2020, dated 2025).

Each structure is given as a SMILES string.

The target in one assay is T1, KRas G13D (Homo sapiens, UniProt P01116, G13D).
T1 construct: Biotinylated KRas (corresponding to amino acids 1-169, produced at Accelegan Inc.); biotin (biotinylated); purchased Accelegan Inc
Kind of assay: KRas binding assay (TR-FRET displacement). On the technique in general: In TR-FRET formats the signal depends on donor and acceptor labels being close together.

The target of another assay is T2, KRas Q61H (Homo sapiens, UniProt P01116, Q61H).
T2 construct: Biotinylated KRas (corresponding to amino acids 1-169, produced at Accelegan Inc.); biotin (biotinylated); purchased Accelegan Inc
T2 sequence (P01116 1-169 isoform P01116-2 Q61H): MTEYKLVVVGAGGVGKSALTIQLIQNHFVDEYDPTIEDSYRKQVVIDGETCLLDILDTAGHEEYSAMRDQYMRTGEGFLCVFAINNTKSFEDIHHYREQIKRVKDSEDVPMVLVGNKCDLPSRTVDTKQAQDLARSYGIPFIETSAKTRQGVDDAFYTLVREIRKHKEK
Kind of assay: KRas binding assay (TR-FRET displacement).

The next assay deals with KRas G12D (Homo sapiens, UniProt P01116, G12D). Kind of assay: biochemical.
KRas G12D, sequence (P01116 1-169 isoform P01116-2 G12D): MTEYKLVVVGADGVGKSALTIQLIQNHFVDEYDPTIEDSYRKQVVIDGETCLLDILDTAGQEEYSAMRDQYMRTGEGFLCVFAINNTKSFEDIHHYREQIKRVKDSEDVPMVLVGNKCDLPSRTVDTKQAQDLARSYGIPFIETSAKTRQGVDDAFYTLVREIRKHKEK
Another assay concerns the target KRas G12V (Homo sapiens, UniProt P01116, G12V). Nature of the assay: biochemical.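 Further: KRas binding measured by TR-FRET displacement at room temperature, IC50 fitted from percent of control values.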
A further assay deals with KRas G12R (Homo sapiens, UniProt P01116, G12R). Kind of assay: biochemical.
KRas G12R, sequence (P01116 1-169 isoform P01116-2 G12R): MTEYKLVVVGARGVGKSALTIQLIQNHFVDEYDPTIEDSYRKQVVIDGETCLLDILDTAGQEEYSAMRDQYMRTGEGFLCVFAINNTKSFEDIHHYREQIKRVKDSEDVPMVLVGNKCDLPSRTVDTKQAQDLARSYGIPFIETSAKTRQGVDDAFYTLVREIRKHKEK
The target in the next assay is KRas G12A (Homo sapiens, UniProt P01116, G12A). Kind of assay: biochemical.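 Further: binding to KRas measured by TR-FRET displacement after one hour at room temperature, IC50 from a four-parameter fit of percent-of-control values.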
KRas G12A, sequence (P01116 1-169 isoform P01116-2 G12A): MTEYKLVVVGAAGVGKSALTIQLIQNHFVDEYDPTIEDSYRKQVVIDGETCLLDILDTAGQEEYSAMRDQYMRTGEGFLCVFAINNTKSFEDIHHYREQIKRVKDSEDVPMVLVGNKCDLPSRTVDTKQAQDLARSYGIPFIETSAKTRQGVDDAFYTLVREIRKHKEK
A further assay deals with KRas G12S (Homo sapiens, UniProt P01116, G12S). Kind of assay: biochemical.
KRas G12S, sequence (P01116 1-169 isoform P01116-2 G12S): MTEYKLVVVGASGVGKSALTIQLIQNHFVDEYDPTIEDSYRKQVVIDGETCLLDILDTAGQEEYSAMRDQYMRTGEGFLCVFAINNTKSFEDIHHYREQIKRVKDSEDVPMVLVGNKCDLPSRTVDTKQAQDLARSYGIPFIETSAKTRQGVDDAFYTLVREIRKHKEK
Another assay has as its target KRas G12C (Homo sapiens, UniProt P01116, G12C). Kind of assay: biochemical.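 Further: binding to KRas assessed by TR-FRET displacement after one hour incubation at room temperature, potency fitted from percent-of-control values.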
A further assay deals with KRas WT (Homo sapiens, UniProt P01116). Nature of the assay: biochemical.
KRas WT, sequence (P01116 1-169 isoform P01116-2): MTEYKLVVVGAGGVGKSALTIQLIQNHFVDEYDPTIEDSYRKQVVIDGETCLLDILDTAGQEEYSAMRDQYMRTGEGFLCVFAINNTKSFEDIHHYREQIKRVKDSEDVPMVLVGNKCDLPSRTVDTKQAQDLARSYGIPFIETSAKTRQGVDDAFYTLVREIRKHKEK

As usually defined, the IC50 is the concentration that inhibits the measured activity by half. A low value points to greater potency in that assay.

KRas G12C, sequence (P01116 1-169 isoform P01116-2 G12C): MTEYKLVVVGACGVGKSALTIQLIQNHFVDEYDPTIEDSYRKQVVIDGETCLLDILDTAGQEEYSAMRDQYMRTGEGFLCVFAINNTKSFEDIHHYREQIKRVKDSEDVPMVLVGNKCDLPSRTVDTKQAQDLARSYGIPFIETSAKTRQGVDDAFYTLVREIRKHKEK
T1 sequence (P01116 1-169 isoform P01116-2 G13D): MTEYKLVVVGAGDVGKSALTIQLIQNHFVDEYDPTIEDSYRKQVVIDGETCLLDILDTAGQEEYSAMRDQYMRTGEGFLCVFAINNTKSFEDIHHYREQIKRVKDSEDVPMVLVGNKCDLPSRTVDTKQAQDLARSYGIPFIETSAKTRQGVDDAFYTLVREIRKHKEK
KRas G12V, sequence (P01116 1-169 isoform P01116-2 G12V): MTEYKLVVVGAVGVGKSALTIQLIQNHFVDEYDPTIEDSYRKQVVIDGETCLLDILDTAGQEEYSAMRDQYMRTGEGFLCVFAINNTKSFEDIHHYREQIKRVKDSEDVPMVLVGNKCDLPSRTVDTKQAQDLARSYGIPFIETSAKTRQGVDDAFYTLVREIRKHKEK

For `O=S1(=O)NCCC2(CCCN(c3nc(OCC45CCCN4CCC5)nc4c(F)c(-c5cccc6cccc(F)c56)ncc34)C2)N1` (stereo not drawn) [Example 247, 8-(8-fluoro-7-(8-fluoronaphthalen-1-yl)-2-((hexahydro-1H-pyrrolizin-7a-yl)methoxy)pyrido[4,3-d]pyrimidin-4-yl)-2-thia-1,3,8-triazaspiro[5.5]undecane 2,2-dioxide], the half-maximal inhibitory concentration (IC50) stood at 1180 nM on KRas G13D; 2060 nM at KRas Q61H; 0.429 µM on KRas G12D; 1.83 µM at KRas G12V; 2.56 µM against KRas G12R; 2.11 µM against KRas G12A. Moreover, the half-inhibitory concentration (IC50) against KRas G12S stood at 2.15 µM; against KRas G12C, 2.68 µM; against KRas WT, 1.59 µM.

As for `O=C(O)[C@H]1C[C@H](Nc2nc(OCC34CCCN3CCC4)nc3c(F)c(-c4cccc5cccc(F)c45)ncc23)C1` [Example 91, trans-3-((8-fluoro-7-(8-fluoronaphthalen-1-yl)-2-((tetrahydro-1H-pyrrolizin-7a(5H)-yl)methoxy)pyrido[4,3-d]pyrimidin-4-yl)amino)cyclobutane-1-carboxylic acid], the IC50 is 36600 nM at KRas G13D; 31400 nM at KRas Q61H; no less than 100 µM against KRas G12D; 12.7 µM at KRas G12V; 2.2 µM at KRas G12R; 12.7 µM against KRas G12A. Also, the half-inhibitory concentration (IC50) was 17.9 µM against KRas G12S, 11.3 µM on KRas G12C and 14.1 µM at KRas WT.

Regarding `Fc1c(-c2cccc3cccc(F)c23)ncc2c(NCc3cn[nH]c3)nc(OCC34CCCN3CCC4)nc12` [Example 93, N-((1H-pyrazol-4-yl)methyl)-8-fluoro-7-(8-fluoronaphthalen-1-yl)-2-((hexahydro-1H-pyrrolizin-7a-yl)methoxy)pyrido[4,3-d]pyrimidin-4-amine], the concentration for half-maximal inhibition (IC50) on KRas G13D was 20400 nM; on KRas Q61H it was 21800 nM; at KRas G12D, 83.6 µM; on KRas G12V, 2.93 µM; at KRas G12R it was 3.39 µM; at KRas G12A, 7.84 µM. The 50% inhibitory concentration (IC50) against KRas G12S is 10.2 µM; on KRas G12C, 4.05 µM; on KRas WT, 14.9 µM.

With `Fc1c(-c2cccc3cccc(F)c23)ncc2c(NCCNc3cccnc3)nc(OCC34CCCN3CCC4)nc12` [Example 211, N1-(8-fluoro-7-(8-fluoronaphthalen-1-yl)-2-((tetrahydro-1H-pyrrolizin-7a(5H)-yl)methoxy)pyrido[4,3-d]pyrimidin-4-yl)-N2-(pyridin-3-yl)ethane-1,2-diamine], the concentration for half-maximal inhibition (IC50) on KRas G13D is 20200 nM; on KRas Q61H, 29800 nM; against KRas G12D, no less than 100 µM; at KRas G12V it was 14.7 µM; at KRas G12R it was 8.03 µM; on KRas G12A, 12.2 µM. Besides, the IC50 against KRas G12S was determined as 18.7 µM; on KRas G12C it was 10.4 µM; on KRas WT it was 16.9 µM.

For `CN(C)CC1(COc2nc(N3CCCC(C)(O)C3)c3cnc(-c4cccc5cccc(F)c45)c(F)c3n2)CC1` (stereo not drawn) [Example 256, 1-(2-((1-((dimethylamino)methyl)cyclopropyl)methoxy)-8-fluoro-7-(8-fluoronaphthalen-1-yl)pyrido[4,3-d]pyrimidin-4-yl)-3-methylpiperidin-3-ol], the IC50 at KRas G13D came to 3800 nM; on KRas Q61H, 6020 nM; against KRas G12D it was 2.42 µM; against KRas G12V it was 4.54 µM; at KRas G12R, 8.14 µM; against KRas G12A, 4.63 µM. Besides, the 50% inhibitory concentration (IC50) at KRas G12S came out at 5.31 µM; against KRas G12C, 4.05 µM; against KRas WT, 4.03 µM.

On to `Fc1c(-c2cccc3cccc(F)c23)ncc2c(OCCCc3cccnc3)nc(OCC34CCCN3CCC4)nc12` [Example 207, 8-fluoro-7-(8-fluoronaphthalen-1-yl)-4-(3-(pyridin-3-yl)propoxy)-2-((tetrahydro-1H-pyrrolizin-7a(5H)-yl)methoxy)pyrido[4,3-d]pyrimidine], for which the half-maximal inhibitory concentration (IC50) at KRas G13D amounted to 30400 nM; on KRas Q61H it was 46400 nM; on KRas G12D, 17.3 µM; against KRas G12V it was 6.17 µM; against KRas G12R, 13.1 µM; against KRas G12A it was 18.1 µM. The half-inhibitory concentration (IC50) against KRas G12S turned out to be 46.2 µM; on KRas G12C, 11.8 µM; against KRas WT, 26.7 µM.

For the compound `O=S1(=O)CC(Nc2nc(OCC34CCCN3CCC4)nc3c(F)c(-c4cccc5cccc(F)c45)ncc23)C1` [Example 95, 3-((8-fluoro-7-(8-fluoronaphthalen-1-yl)-2-((hexahydro-1H-pyrrolizin-7a-yl)methoxy)pyrido[4,3-d]pyrimidin-4-yl)amino)thietane1,1-dioxide], the IC50 came out at 7180 nM at KRas G13D; 10300 nM on KRas Q61H; 55 µM against KRas G12D; 4.99 µM against KRas G12V; 3.06 µM at KRas G12R; 5 µM on KRas G12A. Besides, the IC50 against KRas G12S was determined as 4.12 µM; against KRas G12C, 3.62 µM; against KRas WT it was 3.99 µM.

Turning to `CC1(O)COCCN(c2nc(OCC34CCCN3CCC4)nc3c(F)c(-c4cccc5cccc(F)c45)ncc23)C1` (stereo not drawn) [Example 64, 4-(8-fluoro-7-(8-fluoronaphthalen-1-yl)-2-((hexahydro-1H-pyrrolizin-7a-yl)methoxy)pyrido[4,3-d]pyrimidin-4-yl)-6-methyl-1,4-oxazepan-6-ol], the IC50 on KRas G13D was 1360 nM; on KRas Q61H it was 1550 nM; against KRas G12D it was 0.568 µM; on KRas G12V, 1.36 µM; on KRas G12R, 2.55 µM; against KRas G12A, 1.3 µM. The IC50 against KRas G12S came to 1.15 µM; on KRas G12C, 1.06 µM; against KRas WT it was 0.997 µM.

As to `Cn1cc(CNc2nc(OCC34CCCN3CCC4)nc3c(F)c(-c4cccc5cccc(F)c45)ncc23)ccc1=O` [Example 88, 5-(((8-fluoro-7-(8-fluoronaphthalen-1-yl)-2-((hexahydro-1H-pyrrolizin-7a-yl)methoxy)pyrido[4,3-d]pyrimidin-4-yl)amino)methyl)-methylpyridin-2 (1H)-one], the IC50 at KRas G13D was determined as 9310 nM; at KRas Q61H it was 14700 nM; on KRas G12D, 30.7 µM; against KRas G12V, 2.18 µM; against KRas G12R it was 4.37 µM; against KRas G12A it was 1.82 µM. Besides, the results for the IC50 at KRas G12S, on KRas G12C and against KRas WT were 4.24 µM, 2.51 µM and 7.17 µM, respectively.

As to `CCc1cccc2cccc(-c3ncc4c(NCc5cccnc5N)nc(OCC56CCCN5CCC6)nc4c3F)c12` [Example 204, N-((2-aminopyridin-3-yl)methyl)-7-(8-ethylnaphthalen-1-yl)-8-fluoro-2-((hexahydro-1H-pyrrolizin-7a-yl)methoxy)pyrido[4,3-d]pyrimidin-4-amine], the IC50 on KRas G13D was found to be 317 nM; at KRas Q61H, 283 nM; against KRas G12D, 1.29 µM; on KRas G12V, 0.043 µM; against KRas G12R it was 0.021 µM; on KRas G12A, 0.038 µM. The figures for the IC50 on KRas G12S, against KRas G12C and on KRas WT were 0.051 µM, 0.02 µM and 0.233 µM, respectively.

On to `Cc1cc2[nH]ncc2c(-c2ncc3c(N4CCCC(C)(O)C4)nc(OCC45CCCN4CCC5)nc3c2F)c1C1CC1` (stereo not drawn) [Example 144, 1-(7-(5-cyclopropyl-6-methyl-1H-indazol-4-yl)-8-fluoro-2-((tetrahydro-1H-pyrrolizin-7a(5H)-yl)methoxy)pyrido[4,3-d]pyrimidin-4-yl)-3-methylpiperidin-3-ol], for which the IC50 at KRas G13D amounted to 60 nM; at KRas Q61H, 82 nM; on KRas G12D it was 0.043 µM; at KRas G12V, 0.048 µM; against KRas G12R, 0.096 µM; against KRas G12A, 0.071 µM. Besides, the values for the IC50 against KRas G12S, against KRas G12C and on KRas WT were 0.065 µM, 0.077 µM and 0.074 µM, respectively.

`OC1CC2CC(C1)N(c1nc(OCC34CCCN3CCC4)nc3c(F)c(-c4cccc5cccc(Cl)c45)ncc13)C2` (stereo not drawn) [Example 106, 6-(7-(8-chloronaphthalen-1-yl)-8-fluoro-2-((tetrahydro-1H-pyrrolizin-7a(5H)-yl)methoxy)pyrido[4,3-d]pyrimidin-4-yl)-6-azabicyclo[3.2.1]octan-3-ol]: the IC50 turned out to be 2340 nM on KRas G13D; 2340 nM at KRas Q61H; 3.63 µM against KRas G12D; 0.612 µM against KRas G12V; 1.51 µM at KRas G12R; 0.722 µM against KRas G12A. The IC50 at KRas G12S was 0.369 µM; against KRas G12C, 1.13 µM; against KRas WT, 2.1 µM.

`Fc1c(-c2cccc3cccc(F)c23)ncc2c(NCCc3ccn[nH]3)nc(OCC34CCCN3CCC4)nc12` [Example 215, N-(2-(1H-pyrazol-5-yl)ethyl)-8-fluoro-7-(8-fluoronaphthalen-1-yl)-2-((tetrahydro-1H-pyrrolizin-7a(5H)-yl)methoxy)pyrido[4,3-d]pyrimidin-4-amine]: the IC50 at KRas G13D is 47100 nM; at KRas Q61H, 57500 nM; against KRas G12D it was no less than 100 µM; at KRas G12V, 17 µM; at KRas G12R it was 8.95 µM; against KRas G12A it was 26.1 µM. Further, the IC50 against KRas G12S worked out at 23.5 µM; at KRas G12C, 17.8 µM; on KRas WT it was 34 µM.
